The test system of the test is Mus musculus. Description: In vivo activity against murine P388 leukemia in mice at optimal dose 70 mg/kg/day. In kind it is functional.

As a reminder, the T/C is the result in the treated group divided by that in the control group, in per cent.

As to `CN(C)CCCCCNc1ccc2ncn3c4ccc(O)cc4c(=O)c1c23`, the T/C amounted to 172%.

The values are drawn from ChEMBL document CHEMBL1129504, “Structure-activity relationship for antineoplastic imidazoacridinones: synthesis and antileukemic activity in vivo” (1996).
